Where only a bound is given, the exact number is not on record here.

The first assay has as its target T1, Keap1-Nrf2 (Homo sapiens, UniProt Q14145).
T1 construct: purchased Sino Biological 11981-H20B
Briefly: Keap1-Nrf2 Binding Inhibitory Activity Assay (fluorescence polarization, Keap1_FL + FITC-Nrf2 peptide). Conditions: Keap1-FL, 60 min room temperature. As for the experimental part: Example 2.1 Keap1-Nrf2 Binding Inhibitory Activity Assay
• PerkinElmer EnVision 2105 Multilabel Reader • PerkinElmer FITC FP dual emission Label 2100-8060 • LABCYTE Echo 650 • Corning 384-well microplate #4514 • Keap1_FL, Sino Biological, catalog 11981-H20B • FITC-Nrf2 peptide, GL Biochem, Lot No: p210427-XQ892761
• a) Reference titration • 1. Keap1-Nrf2 Assay Buffer was prepared: 10 mM Tris-HCl pH 7.4, 150 mM NaCl, 50 mM EDTA, 0.05% Tween20, 0.1 mg/ml BSA (freshly add before use). • 2. 2.04× Tracer working solution was prepared: 2.04 nM FITC-Nrf2 peptide in Assay Buffer from 1 μM DMSO stock. • 3. 2× Protein working solution was prepared: 25 nM Keap1-FL in Assay Buffer. • 4. 100× compound working solutions with DMSO were prepared. Starting from 100 μM, serial 3-fold dilutions (10 points) were made by the Echo on the 384-well LDV microplate, then 200 nL of compounds, in duplicated wells, were transferred to a Corning 4514 plate. • 5. 9.8 μL per well of the Tracer working solution was added into the Corning 4514 plate. • 6. 10 μL per well of the Protein working solution was added into the Corning 4514 plate, except for the first two columns where Dilution Buffer were added to serve as “positive control”. • 7. The plate was incubated at room temperature for 60 min. • b) Read data on an EnVision with the following setting: Excitation Light (%): 84; Measurement Height: 9.4; G-Factor: 1; Detector Gain 1:220; Detector Gain 2: 220; Flash Number: 50.
All the Test Compounds were considered as having Keap1-Nrf2 binding inhibitory activity.
For the compound `Cc1c2ccc3c1nnn3CCOCCOc1ccc(cc1)S(=O)(=O)N1CCc3ccc(cc3C1)C2CC(=O)O` (stereo not drawn) [Compound 1, tert-butyl 2-(1^4-methyl-4,4-dioxido-3^1,3^2,3^3,3^4-tetrahydro-1^1H-6,9-dioxa-4-thia-3(7,2)-isoquinolina-1(5,1)-benzo[d][1,2,3]triazola-5(1,4)-benzenacycloundecaphane-2-yl)acetic acid], the IC50 was in the range of 100 to 1000 nM.

As to `Cc1c2ccc3c1nnn3CCCCCCC(=O)N1CCc3ccc(cc3C1)C2CC(=O)O` (stereo not drawn) [Compound 42], the IC50 was not above 100 nM.

With `O=C(O)CC1c2ccc3c(c2)CN(CC3)C(=O)N2CCC(CCCCCn3nnc4c(Cl)c1ccc43)CC2` (stereo not drawn) [Compound 30, 2-(1^4-chloro-4-oxo-3^1,3^2,3^3,3^4-tetrahydro-1^1H-3(7,2)-isoquinolina-1(5,1)-benzo[d][1,2,3]triazola-5(1,4)-piperidinacyclodecaphane-2-yl)acetic acid], the IC50 was not above 100 nM.

Regarding `Cc1ccc2cc1CN(C)C(=O)c1ccc(cc1)COCCCn1nnc3c(C)c(ccc31)C2CC(=O)O` (single isomer, unassigned) [Compound 16, 2-(1^4,3^4,5-trimethyl-6-oxo-1^1H-9-oxa-5-aza-1(5,1)-benzo[d][1,2,3]triazola-3(1,3), 7(1,4)-dibenzenacyclododecaphane-2-yl)acetic acid], the IC50 lay in the range of 1000 to 10000 nM.

For `Cc1c2ccc3c1nnn3CCCCOC1CCN(CC1)S(=O)(=O)N1CCc3ccc(cc3C1)C2CC(=O)O` (stereo not drawn) [Compound 6, 2-(1^4-methyl-4,4-dioxido-3^1,3^2,3^3,3^4-tetrahydro-1^1H-6-oxa-4-thia-3(7,2)-isoquinolina-1(5,1)-benzo[d][1,2,3]triazola-5(1,4)-piperidinacyclodecaphane-2-yl)acetic acid], the IC50 was not above 100 nM.

Turning to `Cc1c2ccc3c1nnn3CCOCCOC1CCN(CC1)C(=O)c1ccc3c(c1)CN(CC3)C2CC(=O)O` (stereo not drawn) [Compound 9, 2-(carboxymethyl)-1^4-methyl-4-oxo-3^1,3^2,3^3,3^4-tetrahydro-1^1H-6,9-dioxa-3(2,7)-isoquinolin-2-iuma-1(5,1)-benzo[d][1,2,3]triazola-5(1,4)-piperidinacycloundecaphan-3^2-ium chloride], the IC50 was in the range of 1000 to 10000 nM.

Consider `Cc1c2ccc3c1nnn3CCCCCC1CCC(CC1)C(=O)N1CCc3ccc(cc3C1)C2CC(=O)O` (single isomer, unassigned) [Compound 49], for which the IC50 is not above 100 nM.

Regarding `Cc1c2ccc3c1nnn3CCCOCc1ccc(cc1)S(=O)(=O)N(C)Cc1cccc(c1)C2CC(=O)O` (stereo not drawn) [Compound 22], the IC50 was 1000 to 10000 nM.

With `Cc1c2ccc3c1nnn3CCOCCOC1CCN(CC1)C(=O)c1ccc3ccc(cc3c1)C2CC(=O)O` (single isomer, unassigned) [Compound 19], the IC50 fell in the range of 1000 to 10000 nM.

On to `Cc1c2ccc3c1nnn3CCCCCC1CCN(CC1)C(=O)N1CCc3ccc(cc3C1)C2CC(=O)O` (single isomer, unassigned) [Compound 28], for which the IC50 was not above 100 nM.

Take `Cc1c2ccc3c1nnn3CCCOCc1ccc(cc1)C(=O)N(C)Cc1cncc(c1)C2CC(=O)O` (single isomer, unassigned) [Compound 23]: the half-maximal inhibitory concentration (IC50) lay within 1000 to 10000 nM.

Turning to `O=C(O)CC1c2ccc3c(c2)CN(CC3)C(=O)N2CCC(CCCCn3nnc4cc1cnc43)CC2` (single isomer, unassigned) [Compound 52], the IC50 was not above 100 nM.

Take `Cc1c2ccc3c1nnn3CCCCCNC(=O)N1CCc3ccc(cc3C1)C2CC(=O)O` (stereo not drawn) [Compound 43]: the IC50 was 1000 to 10000 nM.

Take `Cc1c2ccc3c1nnn3CCCOCc1ccc(cc1)C(=O)N(C)Cc1cccc(n1)C2CC(=O)O` (single isomer, unassigned) [Compound 25]: the IC50 is 1000 to 10000 nM.

Turning to `Cc1c2ccc3c1nnn3CCCOCc1ccc(cc1)C(=O)N(C)Cc1cc(ccn1)C2CC(=O)O` (single isomer, unassigned) [Compound 26], the IC50 is 100 to 1000 nM.

In the case of `Cc1c2ccc3c1nnn3CCCCOc1ccc(cc1)S(=O)(=O)N1CCc3ccc(cc3C1)C2CC(=O)O` (stereo not drawn) [Compound 13, 2-(1^4-methyl-4,4-dioxido-3^1,3^2,3^3,3^4-tetrahydro-1^1H-6-oxa-4-thia-3(7,2)-isoquinolina-1(5,1)-benzo[d][1,2,3]triazola-5(1,4)-benzenacyclodecaphane-2-yl)acetic acid], the IC50 was not above 100 nM.

Consider `Cc1c2ccc3c1nnn3CCCOCc1ccc(cc1)C(=O)N(C)Cc1cncc(c1)C2CC(=O)O` (single isomer, unassigned) [Compound 20], for which the IC50 fell in the range of 1000 to 10000 nM.

As for `Cc1c2ccc3c1nnn3CCCCC1CCC(CC1)C(=O)N1CCc3ccc(cc3C1)C2CC(=O)O` (single isomer, unassigned) [Compound 48], the IC50 was not above 100 nM.

On to `O=C(O)CC1c2ccc3c(c2)CN(CC3)C(=O)N2CCC(CCCCn3nnc4cc1cnc43)CC2` (single isomer, unassigned) [Compound 51], for which the IC50 was in the range of 100 to 1000 nM.

In the case of `Cc1c2ccc3c1nnn3CCCOCc1ccc(cc1)C(=O)N(C)Cc1cc(ccn1)C2CC(=O)O` (single isomer, unassigned) [Compound 27], the IC50 lay within 1000 to 10000 nM.

On to `Cc1c2ccc3c1nnn3CCCCC(=O)N1CCc3ccc(cc3C1)C2CC(=O)O` (stereo not drawn) [Compound 46], for which the IC50 was 100 to 1000 nM.

With `Cc1c2ccc3c1nnn3CCCCCC1CCN(CC1)C(=O)N(C)CCc1ccc(cc1)C2CC(=O)O` (stereo not drawn) [Compound 44, 2-(14,6-dimethyl-7-oxo-11H-6-aza-1(5,1)-benzo[d][1,2,3]triazola-8(1,4)-piperidina-3(1,4)-benzenacyclotridecaphane-2-yl)acetic acid], the IC50 is 1000 to 10000 nM.

Turning to `Cc1c2ccc3c1nnn3CCCOCc1ccc(cc1)C(=O)N(C)Cc1ccnc(c1)C2CC(=O)O` (stereo not drawn) [Compound 21], the IC50 was in the range of 100 to 1000 nM.

For the compound `Cc1c2ccc3c1nnn3CCCCC1CCN(CC1)C(=O)N(C)Cc1cccc(c1)C2CC(=O)O` (stereo not drawn) [Compound 32], the IC50 lay in the range of 1000 to 10000 nM.

With `Cc1c2ccc3c1nnn3CCCCC1CCC(CC1)C(=O)N(C)Cc1cccc(c1)C2CC(=O)O` (stereo not drawn) [Compound 36], the half-maximal inhibitory concentration (IC50) lay within 100 to 1000 nM.

On to `Cc1c2ccc3c1nnn3CCCCCC1CCC(CC1)C(=O)N1CCc3ccc(cc3C1)C2CC(=O)O` (single isomer, unassigned) [Compound 50], for which the IC50 is not above 100 nM.

As to `Cc1c2ccc3c1nnn3CCCOCc1ccc(cc1)C(=O)N(C)Cc1cccc(n1)C2CC(=O)O` (single isomer, unassigned) [Compound 24], the IC50 lay within 100 to 1000 nM.

As for `Cc1c2ccc3c1nnn3CCCCCCCCCC(=O)N1CCc3ccc(cc3C1)C2CC(=O)O` (stereo not drawn) [Compound 41], the IC50 was not above 100 nM.

On to `Cc1c2ccc3c1nnn3CCCCCC1CCN(CC1)C(=O)N1CCc3ccc(cc3C1)C2CC(=O)O` (single isomer, unassigned) [Compound 29], for which the IC50 is not above 100 nM.

Turning to `Cc1c2ccc3c1nnn3CCCCC1CCC(CC1)C(=O)N1CCc3ccc(cc3C1)C2CC(=O)O` (single isomer, unassigned) [Compound 47], the IC50 was not above 100 nM.

`Cc1c2ccc3c1nnn3CCOCCOC1CCN(CC1)C(=O)c1ccc3ccc(cc3c1)C2CC(=O)O` (single isomer, unassigned) [Compound 18]: the IC50 was in the range of 1000 to 10000 nM.

In the case of `Cc1c2ccc3c1nnn3CCCCCCCCNC(=O)N1CCc3ccc(cc3C1)C2CC(=O)O` (stereo not drawn) [Compound 38], the IC50 is not above 100 nM.

As to `Cc1c2ccc3c1nnn3CCOCCOC1CCN(CC1)S(=O)(=O)N1CCc3ccc(cc3C1)C2CC(=O)O` (stereo not drawn) [Compound 15, 2-(1^4-methyl-4,4-dioxido-3^1,3^2,3^3,3^4-tetrahydro-1^1H-6,9-dioxa-4-thia-3(7,2)-isoquinolina-1(5,1)-benzo[d][1,2,3]triazola-5(1,4)-piperidinacycloundecaphane-2-yl)acetic acid], the IC50 was not above 100 nM.

For `Cc1c2ccc3c1nnn3CCCCCC1CCN(CC1)C(=O)N(C)Cc1cccc(c1)C2CC(=O)O` (stereo not drawn) [Compound 31], the IC50 fell in the range of 100 to 1000 nM.

The next assay concerns Nrf2. Briefly: Nrf2 Cellular Assay (pGL4.37[luc2P/ARE/Hygro] luciferase reporter in HepG2 cells). Type of assay: cell-based. To be noted: Homo sapiens, HepG2, 6 h, ARE luciferase, 6 hours compound treatment. As for the experimental part: Example 2.2 Nrf2 Cellular Assay
• 1. pGL4.37[luc2P/ARE/Hygro] vector was diluted to 25 ng/μL in Opti-MEM. • 2. Lipofectamine 3000 was added to a 2:1 lipid:DNA. The mixture was mixed by pipetting and incubate at room temperature for 15 minutes. • 3. HepG2 cells were cultured in complete medium (DMEM+10% FBS). • 4. Trypsin was added to the cells, which were filtered via a cell strainer to remove cell cluster, the cells were then quantified and diluted to 2×10^5 cells/ml in complete medium. • 5. The cells and plasmid were mixed, seeded to 384-well plate 50 μL per well (50 ng DNA/well) and incubated for 24 hours in a 37° C., 5% CO2 incubator.
• 1. Medium was removed from cells and replaced with 36 μL of DMEM+10% FBS per well. • 2. Incubated overnight in a 37° C., 5% CO2 incubator.
• 1. Test compound was serially diluted tin DMSO, and further diluted with DMEM (contains 10% FBS) to 10× final concentration. • 2. 4 μL of the 10× compound was added to each well, the plate was shaken for 10 sec on a plate shaker and incubated for 6 hours in a 37° C., 5% CO2 incubator.
• 1. Plates were removed from the 37° C., 5% CO2 incubator and allowed to cool to room temperature for approximately 15 minutes. • 2. 40 μL of the Glo Luciferase Assay System detection reagents were added, and the plate was shaken for 3 min and luminescence was measured.
As for `Cc1c2ccc3c1nnn3CCOCCOc1ccc(cc1)S(=O)(=O)N1CCc3ccc(cc3C1)C2CC(=O)O` (stereo not drawn) [Compound 1, tert-butyl 2-(1^4-methyl-4,4-dioxido-3^1,3^2,3^3,3^4-tetrahydro-1^1H-6,9-dioxa-4-thia-3(7,2)-isoquinolina-1(5,1)-benzo[d][1,2,3]triazola-5(1,4)-benzenacycloundecaphane-2-yl)acetic acid], the 50% effective concentration (EC50) is more than 30 µM.

Regarding `O=C(O)CC1c2ccc3c(c2)CN(CC3)C(=O)N2CCC(CCCCCn3nnc4c(Cl)c1ccc43)CC2` (stereo not drawn) [Compound 30, 2-(1^4-chloro-4-oxo-3^1,3^2,3^3,3^4-tetrahydro-1^1H-3(7,2)-isoquinolina-1(5,1)-benzo[d][1,2,3]triazola-5(1,4)-piperidinacyclodecaphane-2-yl)acetic acid], the EC50 is not above 10 µM.
